Key:
[1] = Pharmacokinetic (PK) analysis of rat plasma; assay type: in vivo; settings: Sprague-Dawley, po, 20 mg/kg, SD rats, single gavage, 20 mg/10 mL/kg
Method: The pharmacokinetics test of the test compound was performed with Sprague Dawley (SD) rats (Shanghai Slac Laboratory Animal Co., LTD).
Mode of administration: Single gavage.
U Dosage: 20 mg/10 mL/kg.
Formulation prescription: 3% dimethylacetamide and 20% hydroxypropyl-3-cyclodextrin.
Sampling points: before administration and 15 minutes, 0.5, 1, 2, 4, 6, 8 and 24 hours after administration.
Plasma sampling and sample processing: • 1) 0.2 ml of intravenous blood was collected and placed in an EDTA-2K tube. The blood was centrifuged at 4° C. for 5 minutes at 6,000 rpm to separate the plasma, which was stored at −80° C. • 2) 160 μL of acetonitrile were added to 40 μL of plasma sample, standard, and internal reference. The mixture was shaken vertically for 3 minutes, and centrifuged at 4000 rpm for 10 minutes. 100 μL of the supernatant were taken, and then added with 100 μL of deionized water and mixed well. 100 μL of the resulting solution was taken for LC/MS/MS analysis. The instrument for plasma LC/MS/MS analysis was AB Sciex API 4000.
Liquid Chromatography Analysis: • Liquid chromatography conditions: Shimadzu LC-20AD pump • Chromatographic column: phenomenex Gemiu 5 μm C18 50×4.6 mm • Mobile phase: solution A was 0.1% formic acid solution, and solution B was acetonitrile • Flow rate: 0.8 mL/min • Elution time: 0-3.01 minutes and the eluent was as follows:
• Mass spectrometry analysis: setup conditions of mass spectrometer: positive ion electrospray ionization (ESI) mode. • Experimental results: the main parameters of pharmacokinetics were calculated by WinNonlin 6.1 and the experimental results are shown in the following table: […]

[2] = molecular target: T1, indoleamine 2,3-dioxygenase (IDO) in HeLa cells (Homo sapiens, UniProt P14902); assay: Cell model test for IDO activity inhibition (interferon γ induced HeLa cells); assay type: cell-based; settings: interferon γ 50 ng/mL, 24 hours, read-out: Cytological Test IC50
T1 construct: Interferon γ induced the expression of IDO in HeLa cells; host or cells: HeLa cells induced with interferon γ
Method: Interferon γ induced the expression of IDO in HeLa cells. This model was used to test the inhibitory activity of compounds on indoleamine 2,3-dioxygenase (IDO). The culture medium of HeLa cells (ATCC) was phenol red-free RPMI-1640 containing 100 μM L-tryptophan. The stock solution of the test compound was prepared to 10 mM with dimethyl sulfoxide, and diluted with dimethyl sulfoxide to the highest concentration of the test during the experiment, then diluted in three-fold gradient, and generally diluted to 8 to 10 concentration points. Duplicate wells were set for each concentration point. The final concentration of DMSO was 0.5%, and internal reference compound was included in each experiment.
The procedure of the experiment was as follows: 20,000 HeLa cells (ATCC) per well were added on a 96-well culture plate and incubated overnight. After 24 hours, interferon γ (final concentration of 50 ng/mL) and different concentrations of the test compound and the internal reference compound were added to the incubated cells. After 24 hours, 140 μL of the supernatant/well was transferred to a new 96-well plate, and 10 μL of 6.1 N trichloroacetic acid was added to each well. The plate was incubated for 30 minutes at 50° C. to hydrolyze N-formyl-kynurenine to kynurenine. The reaction mixture was centrifuged at 2500 rpm for 10 minutes to remove the precipitate, and the supernatant (100 μL) was transferred to another new 96-well plate. 100 μL of 2% (W/V) p-(dimethylamino)benzaldehyde (p-DMBA)/glacial acetic acid solution was added to each well. The absorbance at 490 nm was read on a BioTek Synergy H1 microplate reader […].
The original data of the absorbance at 490 nm read on a microplate reader were analyzed. The inhibition of IDO enzyme activity was calculated at different concentrations of the test compound. The half-inhibitory concentration IC50 value of the compound was obtained by non-linear fitting analysis of inhibition percentage data by GraphPad Prism software.

[3] = molecular target: T2, Human indoleamine 2,3-dioxygenase (IDO) (Homo sapiens, UniProt P14902); assay: Enzymatic test for IDO activity inhibition; assay type: biochemical; settings: 40 nM IDO enzyme, 0.2 mM L-tryptophan, 60 minutes at 30° C.
T2 construct: purchased BPS Bioscience Inc
Method: Human indoleamine 2,3-dioxygenase (IDO) was purchased from BPS Bioscience Inc. The enzymatic reaction of idoleamine 2,3-dioxygenase (IDO) was performed in a 96-well plate with a reaction volume of 20 μL. The reaction conditions were: 40 nM IDO enzyme, 0.2 mM L-tryptophan, 50 mM KPB (pH 6.5) buffer, 20 mM sodium L-L-ascorbate, 10 μM methylene blue, 0.2 mg/mL catalase, different concentrations of compounds containing <1% dimethyl sulfoxide. After reacting for 60 minutes at 30° C., 5 μL of 30% (w/v) trichloroacetic acid (in 50 mM KPB buffer) weres added to each well. The plate was incubated for 30 minutes at 50° C. to hydrolyze N-formyl-kynurenine to kynurenine. 25 μL of 2% (w/v) p-(dimethylamino)benzaldehyde (p-DMBA)/glacial acetic acid solution were added to each well. The absorbance at 490 nm was read on a BioTek Synergy H1 microplate reader […].
The stock solution of the test compound was prepared to 10 mM with dimethyl sulfoxide, diluted with dimethyl sulfoxide to the highest concentration of the test during the experiment, then diluted in 1:3 gradient, and generally diluted to 8 to 10 concentration points. Duplicate wells were set for each concentration point, and one reference compound was included in each experiment. The original data of the absorbance at 490 nm read on a microplate reader were analyzed. The inhibition of IDO enzyme activity was calculated at different concentrations of the test compound. The half-inhibitory concentration IC50 value of the compound was obtained by non-linear fitting analysis of inhibition percentage data by GraphPad Prism software.

[4] = system: mouse rectal cancer cell line Colon26; assay: Anti-tumor effect in Colon26 tumor-bearing mouse model; assay type: in vivo, mouse (Balb/c); settings: Colon26 tumor-bearing mice
Excerpt: The present invention further used the Colon26 tumor-bearing mouse model to test the anti-tumor effect of the example compounds. The Colon26 tumor-bearing mouse model was the mouse rectal cancer cell line Colon26 purchased from Guangzhou Ginio Biological Technology Co., Ltd., and the culture medium used was RPMI1640 containing 10% fetal bovine serum. The mouse strain used for tumor-bearing was Balb/c purchased from Sino-British SIPPR/BK Lab Animal Co., Ltd. At the time of implanting, the Colon26 cells in logarithmic growth phase were collected and mixed to 10 million cells/ml. Each mouse was implanted subcutaneously with 100 μl of one million cells. When the tumor grew to about 100 cubic millimeters, animals were randomly divided into groups with 8 animals per group. Drug administration was started (D0).
Mode of administration: intragastric administration, twice a day.
(§1) Formulation prescription: 3% dimethylacetamide and 20% hydroxypropyl-β-cyclodextrin. • Administration period and tumor measurement: The administration period was 13 days. The tumor volume was measured, the mice were weighed, and the data were recorded, 3 times per week. The calculation formula of tumor volume (V) is: V=½a×b2 where a and b represent length and width, respectively. The calculation formula of T/C is: T/C (%)=100×ΔT/ΔC. Tumor inhibition rate (%)=1−T/C (%). • Experimental results: The antitumor effect of the compound of Example 15 in Colon26 tumor-bearing mouse model is shown in the following table.
Under the same experimental conditions, the dosage was adjusted. The anti-tumor effect of Example 15 and its optical isomers 18-(1) and 18-(2) in Colon26 tumor-bearing mouse model is shown in the following table: […]

[5] = system: mouse pancreatic cancer cell line PAN02; assay: Anti-tumor effect in PAN02 tumor-bearing mouse model; assay type: in vivo, mouse (C57/BL6); settings: PAN02 tumor-bearing mice, 50 mg/kg intragastric twice a day
Excerpt: The invention used the PAN02 tumor-bearing mouse model to test the anti-tumor effect of the example compounds. The PAN02 tumor-bearing mouse model was the mouse pancreatic cancer cell line PAN02 purchased from Guangzhou Ginnio Biological Technology Co., Ltd., and the culture medium used was DMEM containing 10% fetal bovine serum. The mouse strain used for tumor-bearing was C57/BL6 purchased from Shanghai Slac Laboratory Animal Co., Ltd. At the time of implanting, the PAN02 cells in the logarithmic growth phase were collected, and mixed with the BDMatrigel matrix gel that reduced the growth factor to 50 million cells/ml. Each mouse was implanted subcutaneously with 100 μL of 5 million cells. When the tumor grew to about 100 cubic millimeters, animals were randomly divided into groups with 8 animals per group. Drug administration was started (D0).
Mode of administration: intragastrical administration, twice a day.
as §1, with “3% two methyl acetamide” for “3% dimethylacetamide”, “times a” for “times per”, “is: V=½a×b2,” for “is: V=½a×b2”, “and width” for “and width,”, “results: the anti-tumor” for “results: The antitumor”, “in PAN02” for “in Colon26”

[6] = 25 mg/kg intragastric twice a day, D12

T2 sequence (P14902 whole entry): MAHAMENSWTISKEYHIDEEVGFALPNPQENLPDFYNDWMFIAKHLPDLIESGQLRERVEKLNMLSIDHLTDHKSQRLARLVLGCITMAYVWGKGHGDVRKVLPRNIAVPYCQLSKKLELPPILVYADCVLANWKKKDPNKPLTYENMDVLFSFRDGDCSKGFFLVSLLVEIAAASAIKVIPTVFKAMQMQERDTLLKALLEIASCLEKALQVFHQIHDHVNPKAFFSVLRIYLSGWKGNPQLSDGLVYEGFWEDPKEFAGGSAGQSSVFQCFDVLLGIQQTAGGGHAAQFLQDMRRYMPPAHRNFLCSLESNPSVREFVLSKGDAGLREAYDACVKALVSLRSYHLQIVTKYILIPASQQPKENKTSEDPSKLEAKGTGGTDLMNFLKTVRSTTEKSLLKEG
T1 sequence (P14902 whole entry): as above

AUC(0-inf) [1] | Cmax [1] | Tmax [1] | half-life [1] | IC50 [2] | IC50 [3] | SMILES | Tumor inhibition rate (%) D12 ([4]; 10 mg/kg, D12) | Average tumor volume (mm^3 ± SEM) D0 ([5]; D0 (start of administration)) | Average tumor volume (mm^3 ± SEM) D12 ([5]; D12) | T/C (%) D12 ([5]; D12) | Tumor inhibition rate (%) D12 ([5]; D12, 50 mg/kg) | Average tumor volume (mm^3 ± SEM) D0 ([4]; 25 mg/kg intragastric twice a day, D0 (start of administration)) | Average tumor volume (mm^3 ± SEM) D12 [4, 6] | T/C (%) D12 [4, 6] | Tumor inhibition rate (%) D12 ([4]; 25 mg/kg intragastric twice a day, D12, 25 mg/kg)
7540 ng·h/mL | 1050 ng/mL | 0.5 h | 5.5 h | 12 nM | 38 nM | CS(=O)(=O)N=S(C)(=O)CCNc1nonc1/C(=N/O)Nc1ccc(F)c(Br)c1 (centres unmarked) [Example 14, (Z)—N-(3-bromo-4-fluorophenyl)-N′-hydroxy-4-((2-(S-methyl-N-(methylsulfonyl)sulfonimidoyl)ethyl)amino)-1,2,5-oxadiazole-3-carboximidamide] | – | – | – | – | – | – | – | – | –
7320 ng·h/mL | 2770 ng/mL | 0.5 h | 2.03 h | 11 nM | 19 nM | C[S@@](=O)(CCNc1nonc1/C(=N/O)Nc1ccc(F)c(Br)c1)=NS(=O)(=O)C1CC1 [Example 18-①, (R,Z)—N-(3-bromo-4-fluorophenyl)-4-((2-(N-(cyclopropylsulfonyl)-S-methylsulfonimidoyl)ethyl)amino)-N′-hydroxy-1,2,5-oxadiazole-3-carboximidamide] | 72.54% | – | – | – | – | – | – | – | –
8620 ng·h/mL | 3680 ng/mL | 0.5 h | 2.7 h | 15 nM | 70 nM | NC(=O)C(=O)NCCNc1nonc1/C(=N/O)Nc1ccc(F)c(Br)c1 [Example 1, (Z)—N^1-(2-((4-(N-(3-bromo-4-fluorophenyl)-N′-hydroxycarbamimidoyl)-1,2,5-oxadiazol-3-yl)amino)ethyl)oxalamide] | – | – | – | – | – | – | – | – | –
4610 ng·h/mL | 2020 ng/mL | 0.5 h | 1.4 h | 9 nM | 24 nM | C[S@](=O)(CCNc1nonc1/C(=N/O)Nc1ccc(F)c(Br)c1)=NS(=O)(=O)C1CC1 [Example 18-②, (S,Z)—N-(3-bromo-4-fluorophenyl)-4-((2-(N-(cyclopropylsulfonyl)-S-methylsulfonimidoyl)ethyl)amino)-N′-hydroxy-1,2,5-oxadiazole-3-carboximidamide] | 68.49% | – | – | – | – | – | – | – | –
2450 ng·h/mL | 306 ng/mL | 1 h | 3.5 h | – | – | NS(=O)(=O)NCCNc1nonc1C(=NO)Nc1ccc(F)c(Br)c1 [INCB-24360, Epacadostat, reference compound] | – | 102.8 ± 3.4 mm^3 | 242.1 ± 23.4 mm^3 | 60.3% | 39.7% | 95.3 ± 2.4 mm^3 | 565.2 ± 10.9 mm^3 | 21.6% | 78.4%

— patent publication US20190040025A1, “INDOLEAMINE 2,3-DIOXYGENASE INHIBITOR, PREPARATION METHOD THEREFOR, AND APPLICATION” (Jiangsu Hansoh Pharmaceutical Group Co., Ltd., priority 2016, published 2019)
